Experimental data published in paper PMC7472354, “Enhanced Antimicrobial Activity of N-Terminal Derivatives of a Novel Brevinin-1 Peptide from The Skin Secretion of Odorrana schmackeri” (Toxins, 2020).
Values after ≈ are worked out from the molar mass of the structure shown. Read-outs that look alike come from different tables or passages of the source. Values belong to the compound of their own block, whether it stands above or below them. Where a SMILES comes first, the peptide text is derived from it. Bridges are numbered along the chain shown (N, C = ends).

Legend:
[1] = tested on: Methicillin-resistant Staphylococcus aureus (MRSA, ATCC 12493); assay type: cell-based; conditions: for MBC: ATCC 12493, 18 h; for MIC: ATCC 12493, 24 h
Description: (§1) The minimal inhibitory concentrations (MICs) and minimum bactericidal concentrations (MBCs) were evaluated to determine the antimicrobial activity of synthetic peptides. The microorganisms employed in the study are two kinds of Gram-negative bacteria, Escherichia coli (NCTC 10418) and Pseudomonas aeruginosa (ATCC 27853), three kinds of Gram-positive bacteria, Staphylococcus aureus (NCTC 10788), Methicillin-resistant Staphylococcus aureus (MRSA, ATCC 12493) and Enterococcus faecalis (NCTC 12697) and a yeast, Candida albicans (NCPF 1467), as indicated previously. […] The sterilised broth medium was used as the positive control and the microorganism cultured in the medium only was treated as the negative control. […] The MBC results were defined as the lowest bactericidal concentrations of peptide. The antimicrobial activity of peptides was tested by monitoring the absorbance at 550 nm using an ELISA plate reader (Biolise BioTek EL808, Winooski, VT, USA).

[2] = tested on: Candida albicans (NCPF 1467); assay type: cell-based; conditions: for MBC: NCPF 1467, 18 h; for MIC: NCPF 1467, 24 h
Description: as §1

[3] = tested on: Enterococcus faecalis (NCTC 12697); assay type: cell-based; conditions: for MBC: NCTC 12697, 18 h; for MIC: NCTC 12697, 24 h
Description: as §1

[4] = tested on: Pseudomonas aeruginosa (ATCC 27853); assay type: cell-based; conditions: for MBC: ATCC 27853, 18 h; for MIC: ATCC 27853, 24 h
Description: as §1

[5] = tested on: Escherichia coli (NCTC 10418); assay type: cell-based; conditions: for MBC: NCTC 10418, 18 h; for MIC: NCTC 10418, 24 h
Description: as §1

[6] = tested on: Staphylococcus aureus (NCTC 10788); assay type: cell-based; conditions: for MBC: NCTC 10788, 18 h; for MIC: NCTC 10788, 24 h
Description: as §1

horse red blood cells = test: Haemolysis assay and therapeutic index; conditions: 2% horse red blood cells in PBS, 2 h, 37 °C, absorbance 570 nm; best-fitted curve
Description: The haemolytic activity of synthetic peptides was determined using the horse red blood cells that were extracted from the de-fibroblast whole horse blood (TCS Biosciences Ltd. Buckingham, UK). […] Briefly, the red blood cells were harvested and washed using PBS until all broken red blood cells were removed. Then, a 2% cell suspension was prepared using PBS. The peptide concentrations were set as antimicrobial activity assay and mixed with the red blood cells in the microcentrifuge tubes. After a 2 h-incubation at 37 °C, the tubes were centrifuged and the suspension was transferred into a clear 96 well plate. The absorbance of released haemoglobin in the suspension was detected at 570 nm by a plate reader. Besides, the red blood cells treated with PBS and 1% Triton X-100 were used as the negative and positive controls, respectively. […] The therapeutic index (TI) was further determined as below:(1) TI=HC50/product of n MICsn,

P. aeruginosa = assay type: cell-based, Pseudomonas aeruginosa; conditions: 24 h
Description: (§2) The minimal inhibitory concentrations (MICs) and minimum bactericidal concentrations (MBCs) were evaluated to determine the antimicrobial activity of synthetic peptides. The microorganisms employed in the study are two kinds of Gram-negative bacteria, Escherichia coli (NCTC 10418) and Pseudomonas aeruginosa (ATCC 27853), three kinds of Gram-positive bacteria, Staphylococcus aureus (NCTC 10788), Methicillin-resistant Staphylococcus aureus (MRSA, ATCC 12493) and Enterococcus faecalis (NCTC 12697) and a yeast, Candida albicans (NCPF 1467), as indicated previously. For antimicrobial assays, 5 × 10^5 CFU/mL of bacterial suspensions were incubated with the concentrations of the peptides (ranging from 1 µM to 512 µM) for 24 h at 37 °C. The sterilised broth medium was used as the positive control and the microorganism cultured in the medium only was treated as the negative control. […] The MBC results were defined as the lowest bactericidal concentrations of peptide. The antimicrobial activity of peptides was tested by monitoring the absorbance at 550 nm using an ELISA plate reader (Biolise BioTek EL808, Winooski, VT, USA).
(§3) The activity of peptides in the different environmental conditions including different concentrations of NaCl (50, 100 and 150 mM) and MgCl2 (0.5, 1 and 2 mM), pH (6, 7 and 8), temperature (50 °C, 75 °C and 100 °C) and 10% fetal bovine serum (FBS) solution, was evaluated using the broth microdilution assay as described in the antimicrobial activity assay. For the stability test of peptides in the presence of salt, pH and serum, these conditions were adjusted in the fresh medium that was further used to dilute the bacteria suspension. The peptides were also dissolved in such broth and mixed with the bacteria suspension in the 96 well plate. For the thermal stability test, the peptides were dissolved in the water and incubated at different temperature for 15 min before dosing in the plate. The sterilised broth with corresponding conditions was used as the positive controls, and the bacteria suspension without any treatment was used as the negative controls.

[7] = tested on: E. faecalis (NCTC 12697) biofilm; assay type: cell-based, Enterococcus faecalis
Description: (§4) The anti-biofilm effects of all synthetic peptides were evaluated, which was described in our previous study. The organisms, including S. aureus (NCTC 10788), E. coli (NCTC 10418), MRSA (ATCC 12493), E. faecalis (NCTC 12697) and P. aeruginosa (ATCC 27853), were investigated in this study. Gram-positive bacteria were cultured in the TSB broth and Gram-negative bacteria were cultured in the LB broth. The anti-biofilm effects were determined based on the MBIC and MBEC of all the peptides. For the determination of MBIC, 5 × 10^5 CFU/mL bacterial cultures were incubated with the peptides concentrations (ranging from 1 µM to 512 µM) for 24 h. The sterilised medium and bacterial suspension without any treatment were used as the negative controls and positive controls, respectively. After incubation, wells were rinsed, fixed, stained, washed and dissolved with phosphate buffer saline (PBS), methanol (90%, v/v), crystal violet (0.1%, w/v), sterile deionised water and acetic acid (30%, v/v), respectively. The absorbance of dissolved stain was measured at a 595 nm using a Synergy HT plate reader (Biotech, Minneapolis, MN, USA).
(§5) For the MBEC assay, the peptide concentrations were prepared as above. The bacteria were cultured in the 96 well plate for 24–48 h, which allowed the formation of mature biofilm in the plate. Then, the bacterial culture was removed from the plate. The biofilm was further washed to remove the planktonic bacteria using PBS. Then, the fresh broth that contained different peptide concentrations was added in the plate for incubation of 24 h at 37 °C. After incubation, the plate was stained by crystal violet as mentioned above. The definition of MBIC can be given when compared to the negative control group (≥90%, MBIC90; ≥50%, MBIC50). The definition of the MBEC can be given when compared to the negative control group (≥90%, MBEC90; ≥50%, MBEC50).

C. albicans = assay type: cell-based, Candida albicans; conditions: 24 h
Description: as §2, §3

[8] = tested on: E. coli (NCTC 10418) biofilm; assay type: cell-based, Escherichia coli
Description: as §4, §5

[9] = tested on: P. aeruginosa (ATCC 27853) biofilm; assay type: cell-based, Pseudomonas aeruginosa
Description: as §4, §5

S. aureus = assay type: cell-based, Staphylococcus aureus; conditions: 24 h
Description: as §2, §3

MRSA = assay type: cell-based, Staphylococcus aureus; conditions: 24 h
Description: as §2, §3

[10] = tested on: S. aureus (NCTC 10788) biofilm; assay type: cell-based, Staphylococcus aureus
Description: as §4, §5

[11] = tested on: MRSA (ATCC 12493) biofilm; assay type: cell-based, Staphylococcus aureus
Description: as §4, §5

E. faecalis = assay type: cell-based, Enterococcus faecalis; conditions: 24 h
Description: as §2, §3

E. coli = assay type: cell-based, Escherichia coli; conditions: 24 h
Description: as §2, §3

MIC [1]: > 512 µM
MIC [2]: 512 µM (≈ 592 µg/mL)
MIC [3]: > 512 µM
MIC [4]: > 512 µM
MIC [5]: > 512 µM
MIC [6]: 256 µM (≈ 296 µg/mL)
Structure (SMILES): CC[C@H](C)[C@H](NC(=O)CNC(=O)[C@@H]1CCCN1C(=O)[C@H](CC(C)C)NC(=O)[C@@H](N)Cc1ccccc1)C(=O)N[C@@H](CC(C)C)C(=O)N[C@@H](CCCCN)C(=O)N[C@H](C(=O)N[C@@H](C)C(=O)N[C@@H](C)C(=O)N[C@@H](CCCCN)C(N)=O)C(C)C [OSb] (H-FLPGILKVAAK-NH2)
MBC [1]: > 512 µM
MBC [2]: > 512 µM
MBC [3]: > 512 µM
MBC [4]: > 512 µM
MBC [5]: > 512 µM
MBC [6]: > 512 µM
HC50 (concentration causing 50% haemolysis of the red blood cells) (horse red blood cells): 381.4 µM

MIC (P. aeruginosa; pH 6): 128 µM (≈ 314 µg/mL)
MIC (P. aeruginosa; pH 7): 256 µM (≈ 628 µg/mL)
MIC (P. aeruginosa; pH 8): 256 µM (≈ 628 µg/mL)
MIC (C. albicans; pH 6): 64 µM (≈ 157 µg/mL)
MIC (C. albicans; pH 7): 16 µM (≈ 39.2 µg/mL)
MIC (C. albicans; pH 8): 16 µM (≈ 39.2 µg/mL)
MIC [1]: 32 µM (≈ 78.5 µg/mL)
MIC [2]: 8 µM (≈ 19.6 µg/mL)
MIC [3]: 8 µM (≈ 19.6 µg/mL)
MIC [4]: 256 µM (≈ 628 µg/mL)
MIC [5]: 128 µM (≈ 314 µg/mL)
MIC [6]: 4 µM (≈ 9.81 µg/mL)
MIC (S. aureus; pH 6): 8 µM (≈ 19.6 µg/mL)
MIC (S. aureus; pH 7): 4 µM (≈ 9.81 µg/mL)
MIC (S. aureus; pH 8): 4 µM (≈ 9.81 µg/mL)
MIC (MRSA; pH 6): 64 µM (≈ 157 µg/mL)
MIC (MRSA; pH 7): 8 µM (≈ 19.6 µg/mL)
MIC (MRSA; pH 8): 4 µM (≈ 9.81 µg/mL)
MIC (E. faecalis; pH 6): 128 µM (≈ 314 µg/mL)
MIC (E. faecalis; pH 7): 32 µM (≈ 78.5 µg/mL)
MIC (E. faecalis; pH 8): 16 µM (≈ 39.2 µg/mL)
MIC (E. coli; pH 6): 32 µM (≈ 78.5 µg/mL)
MIC (E. coli; pH 7): 32 µM (≈ 78.5 µg/mL)
MIC (E. coli; pH 8): 128 µM (≈ 314 µg/mL)
Structure (SMILES): CC[C@H](C)[C@H](NC(=O)CNC(=O)[C@@H]1CCCN1C(=O)[C@H](CC(C)C)NC(=O)[C@@H](N)Cc1ccccc1)C(=O)N[C@@H](CC(C)C)C(=O)N[C@@H](CCCCN)C(=O)N[C@H](C(=O)N[C@@H](C)C(=O)N[C@@H](C)C(=O)N[C@@H](CC(N)=O)C(=O)N[C@H](C(=O)N[C@H](C(=O)N1CCC[C@H]1C(=O)NCC(=O)N[C@H](C(=O)N[C@H](C(=O)N[C@H]1CSSC[C@@H](C(=O)O)NC(=O)[C@H](CCCCN)NC(=O)[C@H](CCCCN)NC(=O)[C@H]([C@@H](C)O)NC(=O)[C@H]([C@@H](C)CC)NC(=O)[C@H](C)NC1=O)[C@@H](C)CC)C(C)C)C(C)C)C(C)C)C(C)C [Brevinin-1OS] (H-FLPGILKVAANVVPGVICAITKKC-OH; disulfide 18-24)
MBEC50 [7]: 256 µM
MBEC90 [7]: > 512 µM
MBIC50 ([7]; NCTC 12697, 24 h): 32 µM
MBIC90 ([7]; NCTC 12697, 24 h): 64 µM
MBEC50 [8]: > 512 µM
MBEC90 [8]: > 512 µM
MBIC50 ([8]; NCTC 10418, 24 h): 128 µM
MBIC90 ([8]; NCTC 10418, 24 h): 128 µM
MBEC50 [9]: 512 µM
MBEC90 [9]: 512 µM
MBIC50 ([9]; ATCC 27853, 24 h): 256 µM
MBIC90 ([9]; ATCC 27853, 24 h): 256 µM
MBC [1]: 32 µM (≈ 78.5 µg/mL)
MBC [2]: 64 µM (≈ 157 µg/mL)
MBC [3]: 16 µM (≈ 39.2 µg/mL)
MBC [4]: > 512 µM
MBC [5]: > 512 µM
MBC [6]: 16 µM (≈ 39.2 µg/mL)
MBEC50 [10]: 32 µM
MBEC90 [10]: 64 µM
MBIC50 ([10]; NCTC 10788, 24 h): 4 µM
MBIC90 ([10]; NCTC 10788, 24 h): 4 µM
MBEC50 [11]: 64 µM
MBEC90 [11]: 256 µM
MBIC50 ([11]; ATCC 12493, 24 h): 8 µM
MBIC90 ([11]; ATCC 12493, 24 h): 32 µM
